Assay results as given in paper PMC6630718, “Discovery of Novel UV-Filters with Favorable Safety Profiles in the 5-Arylideneimidazolidine-2,4-dione Derivatives Group” (Molecules, 2019).
Where two headings read alike, the source gives them in different places.

Key:
[1] = In vitro photoprotection study of 2% (w/w) macrogol formulations on PMMA plates; conditions: for UVA PF / UVA/UVB Ratio / λc (critical wavelength): 2% (w/w) macrogol formulation F1 (Triacetin 4.8%); for SPFin vitro: 2% (w/w) macrogol formulation F1 (Tween 20, PEG-400, PEG-1500, Triacetin 4.8%)
Text: The composition of formulations and concentration of tested compounds were based on their limited solubility. N-monosubstituted compounds 2a–2e were insoluble at desirable concentrations in the typical solvents used in cosmetic formulations such as alcohols, triacetin, surfactants, and co-surfactants. To dissolve compounds 2a and 2b before incorporation to the formulation DMSO: Tween 20 (1:9 w/w) was used, for less soluble 2c–2e it was necessary to use DMSO alone as solvent. […] Thus the detailed composition of the formulations is as follows: F1–Tween 20 43.2%, PEG-400 25%, PEG-1500 25%, Triacetin 4.8%, tested compound 2%; F2–Tween 20 43.2%, PEG-400 25%, PEG-1500 25%, DMSO 4.8%, tested compound 2%; F3–PEG-400 25%, PEG-1500 25%, DMSO 48%, tested compound 2%. Considering the disadvantages of currently reported macrogol formulations and the low concentration achieved for the tested compounds (2%), we plan to work on cosmetic emulsions containing the most promising derivatives at higher concentrations as well as required excipients including preservatives, antioxidants, etc. This research will be carried out in the near future.
Tested compounds and commercial UV filters as reference standards were incorporated to a neutral macrogel formulation in the concentration of 2%. Prior to the incorporation, compounds 3a–3e and 4f–4h and reference UV-filters were dissolved in a triacetin:Tween 20 (1:9) solvent system. For compounds 2a–2e it was necessary to use DMSO. The final composition of the macrogol formulations is presented in the photoprotective activity section.
In vitro photoprotection study was performed according to EN ISO 24443:2012 [71] with slight modifications. Formulation with tested compound (32.5 mg) was applied on a polymethylmethacrylate plate (PMMA) with the application area 25 cm^2 and 5 µm roughness value to simulate the skin surface (Schonberg GmbH, Hamburg, Germany). As a reference a PMMA plate treated with approximately 15 µL of glycerin was used. Measurements were carried out by reflectance spectrophotometry with SPF-290AS Analyser (Solar Light Company, Glenside, PA, USA) equipped with integrating sphere controlled by WinSPF version X.X. software. For each sample two plates were prepared, absorbance measures were performed on 6 different positions of the plate from 290 to 400 nm with 1 nm steps. The results were expressed as an average of data from 12 scans.

[2] = Photostability in methanol solutions (solar light simulator); type: physicochemical; set-up: λmax pre-irradiation: unit not given beside the values; conditions: methanol solution; for % of initial AUC post-irradiation / λmax post-irradiation: 1h irradiation at 500 W/m2
Procedure: (§1) The photostability evaluation of compounds was performed both in methanol solutions and in macrogol formulations. Irradiation of samples according to previous studies was conducted for 1 h at 500 W/m^2 (cumulative dose of ultraviolet radiation 218 kJ/m^2) with solar light simulator (Suntest CPS+, Atlas, Linsengericht, Germany) equipped with an optical filter cutting off wavelengths shorter than 290 nm and IR-block filter to neutralize thermal effects. The UV absorption spectrum of the samples were analysed post-irradiation and compared with pre-irradiation results. UPLC-MS/MS analyses were also performed.
(§2) Methanol solutions were tested at concentration 25 or 50 µM in quartz cuvettes with the PTFE stopper to prevent evaporation or leaking of the solvent. Macrogol formulations (2% w/w) were tested on PMMA plates (1.3 mg/cm^2). After post-irradiation measure of UV absorption, exposed and unexposed plates were washed with 5 mL of methanol, then mixtures were filtered and analysed by UPLC-MS/MS. All analyses were performed in duplicates.

[3] = Photostability in macrogol formulations on PMMA plates (solar light simulator); type: physicochemical; conditions: for % of Initial AUC / % of Initial SPFin vitro / % of Initial UVA PF: after 1 h irradiation at 500 W/m^2, formulation F1; for new photoproduct (besides photoisomer), relative peak area: post-irradiation chromatogram; for decrease of AUC after irradiation: macrogol formulation F1; for percentage of photoproducts content: post-irradiation chromatograms
Procedure: After irradiation of thin layer of formulations applied on PMMA plates, their photoprotective parameters were determined and compared with the pre-irradiation results. The study gives an overview on functional photostability of the tested compounds. It is an important test, because the photostability of some compounds in low concentrated solutions may meaningfully differ from results obtained for higher concentrations used in sunscreen products. […] In the present study both UVB and UVA-absorbers were tested, so the changes in SPFin vitro, UVA PF and AUC after irradiation are taken into account as a measure of photostability.
as §1, §2

[4] = Ultraviolet spectroscopy in methanol solutions; type: physicochemical; conditions: for Absorption Range: scan range 290–400 nm
Procedure: Spectra with a scan range of 290–400 nm were recorded in 50 or 25 μM methanol solutions, in 1 cm path length, 1.5 mL quartz cuvettes on a U-2800 double beam spectrophotometer (Hitachi, Tokyo, Japan) controlled by UV Solution version 2.2 software. The molar extinction coefficient at maximum absorption (εmax) of tested compounds was determined in methanol as the slope of the linear regression of absorbance vs. concentration of tested compound (from 10 to 50 μM or 2.5 to 30 μM).

[5] = In vitro stability in mouse liver microsomes; type: in vitro ADME; conditions: mouse, mouse liver microsomes
Procedure: Mouse liver microsomes (MLMs) were used to investigate the phase I metabolism of selected compounds (2c, 2d, 3b, 4g, 5a) and the reference substance BP-2. Samples composed of test compound (20 µM), MLMs (0.8 mg/mL) and potassium phosphate buffer (100 mM, pH 7.4) were preincubated prior to addition of NADPH-regenerating system. NADPH-regenerating system contained NADP, glucose-6-phosphate, glucose-6-phosphate dehydrogenase and potassium phosphate buffer (100 mM, pH 7.4). Control incubations were performed in the absence of the NADPH-regenerating system and in case of esters (2c, 2d, 3b and 4g) without the mouse liver microsomes solution to determine spontaneous hydrolysis. Incubations were conducted at 37 °C for at least 15 min up to 60 min. The reactions were stopped by the addition of 250 μL ice-cold methanol containing internal standard PTX (20 μM). The mixture was then centrifuged. Supernatant analysis was performed using UPLC/MS (Waters Corporation). The assays were repeated two times. The in vitro half times (t1/2) for test compounds were determined from the slope of the linear regression of ln % parent compound remaining versus incubation time. The calculated t1/2 was incorporated into the following equation to obtain intrinsic clearance: (Clint) = (volume of incubation [µL]/ protein in the incubation [mg]) × 0.693 / t1/2 [74].

For `CCOC(=O)CN1C(=O)/C(=C/c2ccccc2)N(CC(=O)OCC)C1=O` [Compound 3a, Diethyl 2,2′-((Z)-4-benzylidene-2,5-dioxoimidazolidine-1,3-diyl)diacetate], the “UVA PF” value [1] was 1.29 ± 0.09, the “UVA/UVB Ratio” value [1] was 0.16 ± 0.02 and the λc (critical wavelength) [1] was 331 nm. For the same compound, the SPFin vitro [1] was 2.97 ± 0.45, the λmax pre-irradiation [2] was 295 and the “% of initial AUC post-irradiation” value [2] was 122.34%. The λmax post-irradiation [2] was 301, the “% of Initial AUC” value [3] was 88.19% and the “% of Initial SPFin vitro” value [3] was 83.31%. The “% of Initial UVA PF” value [3] was 103.50%, the melting point was 47 to 49 °C and the “hypsochromic shift of λmax compared to N-monosubstituted derivatives” value [4] was 21 nm. The εmax [4] was 13980 M⁻¹ cm⁻¹, the λmax [4] was 295 nm and the “Absorption Range” value [4] was 290–335 nm.

In the case of `CCOC(=O)CN1C(=O)/C(=C/c2ccc(OCC)cc2)N(CC(=O)OCC)C1=O` [Compound 3c, Diethyl 2,2′-((Z)-4-(4-ethoxybenzylidene)-2,5-dioxoimidazolidine-1,3-diyl)diacetate], the “UVA PF” value [1] is reported as 2.46 ± 0.01, the “UVA/UVB Ratio” value [1] is reported as 1.05 ± 0.03 and the λc (critical wavelength) [1] is reported as 370 nm. The SPFin vitro [1] was 2.49 ± 0.08, the λmax pre-irradiation [2] was 321 and the “% of initial AUC post-irradiation” value [2] was 119.42%. For the same compound, the λmax post-irradiation [2] was 329, the “% of Initial AUC” value [3] was 85.29% and the “% of Initial SPFin vitro” value [3] was 88.73%. The “% of Initial UVA PF” value [3] was 86.59%, the “new photoproduct (besides photoisomer), relative peak area” value ([3]; macrogol formulation) was 2.8% and the melting point was 44 to 46 °C. For the same compound, the εmax [4] was 17010 M⁻¹ cm⁻¹, the λmax [4] was 321 nm and the “Absorption Range” value [4] was 290–367 nm.

In the case of `CCOC(=O)CN1C(=O)/C(=C/c2ccc(OC)cc2OC)N(CC(=O)OCC)C1=O` [Compound 3d, Diethyl 2,2′-((Z)-4-(2,4-dimethoxybenzylidene)-2,5-dioxoimidazolidine-1,3-diyl)diacetate], the “UVA PF” value [1] is reported as 2.35 ± 0.03, the “UVA/UVB Ratio” value [1] is reported as 1.63 ± 0.01 and the λc (critical wavelength) [1] is reported as 383 nm. For the same compound, the SPFin vitro [1] was 1.84 ± 0.02, the λmax pre-irradiation [2] was 333 and the “% of initial AUC post-irradiation” value [2] was 111.55%. For the same compound, the λmax post-irradiation [2] was 342, the “% of Initial AUC” value [3] was 94.01% and the “% of Initial SPFin vitro” value [3] was 89.92%. The “% of Initial UVA PF” value [3] was 97.66%, the “new photoproduct (besides photoisomer), relative peak area” value ([3]; macrogol formulation) was “no additional peaks besides the photoisomer” and the melting point was 88 to 90 °C. For the same compound, the εmax [4] was 17310 M⁻¹ cm⁻¹, the λmax [4] was 333 nm and the “Absorption Range” value [4] was 290–374 nm.

With `CCOC(=O)CN1C(=O)/C(=C/c2ccc(OC)c(OC)c2)N(CC(=O)OCC)C1=O` [Compound 3e, Diethyl 2,2′-((Z)-4-(3,4-dimethoxybenzylidene)-2,5-dioxoimidazolidine-1,3-diyl)diacetate] the “UVA PF” value [1] was 2.17 ± 0.11, the “UVA/UVB Ratio” value [1] was 1.43 ± 0.02 and the λc (critical wavelength) [1] was 382 nm. For the same compound, the SPFin vitro [1] was 1.87 ± 0.08, the λmax pre-irradiation [2] was 329 and the “% of initial AUC post-irradiation” value [2] was 129.32%. The λmax post-irradiation [2] was 340, the “% of Initial AUC” value [3] was 79.59% and the “% of Initial SPFin vitro” value [3] was 81.28%. For the same compound, the “% of Initial UVA PF” value [3] was 87.10%, the melting point was 80 to 82 °C and the εmax [4] was 14200 M⁻¹ cm⁻¹. The λmax [4] was 329 nm and the “Absorption Range” value [4] was 290–380 nm.

For `CCOC(=O)CN1C(=O)/C(=C/C=C/c2ccccc2)N(CC(=O)OCC)C1=O` [Compound 4f, Diethyl 2,2′-((Z)-2,4-dioxo-5-((E)-3-phenylallylidene)imidazolidyne-1,3-diyl)diacetate], the “UVA PF” value [1] was 8.43 ± 1.35, the “UVA/UVB Ratio” value [1] was 2.58 ± 0.06 and the λc (critical wavelength) [1] was 381 nm. The SPFin vitro [1] was 2.51 ± 0.17, the “decrease of AUC after irradiation” value [2] was 40.9% and the λmax pre-irradiation [2] was 354. The “% of initial AUC post-irradiation” value [2] was 59.12%, the λmax post-irradiation [2] was 354 and the “% of Initial AUC” value [3] was 27.92%. For the same compound, the “% of Initial SPFin vitro” value [3] was 62.24%, the “% of Initial UVA PF” value [3] was 25.98% and the “photostability (in words)” value ([3]; macrogol formulation) was “unsatisfactory”. The “decrease of AUC after irradiation” value [3] was 72.1%, the “percentage of photoproducts content” value ([3]; macrogol formulation) was 22.9% and the melting point was 99 to 100 °C. The εmax [4] was 41477 M⁻¹ cm⁻¹, the λmax [4] was 354 nm and the “Absorption Range” value [4] was 295–389 nm.

With `CCOC(=O)CN1C(=O)/C(=C/C=C/c2ccccc2OC)N(CC(=O)OCC)C1=O` [Compound 4h, Diethyl 2,2′-((Z)-4-((E)-3-(2-methoxyphenyl)allylidene)-2,5-dioxoimidazolidine-1,3-diyl)diacetate] the “UVA PF” value [1] was 4.28 ± 0.02, the “UVA/UVB Ratio” value [1] was 2.58 ± 0.01 and the λc (critical wavelength) [1] was 389 nm. The SPFin vitro [1] was 1.94 ± 0.04, the “decrease of AUC after irradiation” value [2] was 1.5% and the λmax pre-irradiation [2] was 370. The “% of initial AUC post-irradiation” value [2] was 98.55%, the λmax post-irradiation [2] was 370 and the “% of Initial AUC” value [3] was 69.19%. The “% of Initial SPFin vitro” value [3] was 82.22%, the “% of Initial UVA PF” value [3] was 62.38% and the “decrease of AUC after irradiation” value [3] was 30.8%. The “percentage of photoproducts content” value ([3]; macrogol formulation) was 11.0%, the melting point was 134 to 135 °C and the εmax [4] was 34987 M⁻¹ cm⁻¹. The λmax [4] was 370 nm and the “Absorption Range” value [4] was 290–400 nm.

For `O=C(O)CN1C(=O)N/C(=C\c2ccccc2)C1=O` [Compound 5a, (Z)-2-(4-Benzylidene-2,5-dioxoimidazolidin-1-yl)acetic acid], the half-life at 20 µM ([5]; pH 7.4, mouse liver microsomes 0.8 mg/mL, 20 µM compound, NADPH-regenerating system, 37 °C, read-out: t ½) was 23.1 h, the microsomal CLint at 20 µM ([5]; pH 7.4, mouse liver microsomes, calculated from t1/2) was less than 1 µL/min/mg and the half-life at 20 µM ([5]; pH 7.4, mouse liver microsomes, read-out: t1/2) was greater than 23 h. It also gave a melting point of 215 to 217 °C, a εmax [4] of 27310 M⁻¹ cm⁻¹ and a λmax [4] of 316 nm. The “Absorption Range” value [4] was 290–346 nm.
